Measured values from patent US9868720B2 (Genentech, Inc., priority 2013, dated 2018).

Target: DLK kinase (N-terminally GST-tagged DLK, catalytic domain amino acid 1-520) (Homo sapiens (Human), UniProt Q12852)
Assay: DLK TR-FRET assay
Type: biochemical
Conditions: 30 μM ATP, MKK4 K131M substrate, read-out: DLK HTRF (Ki)
Protocol: DLK TR-FRET assay: DLK kinase reactions (20 μL) containing 5 nM N-terminally GST-tagged DLK (catalytic domain amino acid 1-520) (Carna Bioscience), 40 nM N-terminally HIS-tagged MKK4 K131M substrate, and 30 μM ATP in kinase reaction buffer (50 mM HEPES, pH 7.5, 0.01% Triton X-100, 0.01% Bovine γ-Globulins, 2 mM DTT, 10 mM MgCl2 and 1 mM EGTA), and testing compound 1:3 serial diluted starting at 20 uM were incubated at ambient temperature for 60 minutes in 384 well OptiPlate (Perkin Elmer). To quench kinase reactions and detect phosphorylated MKK4, 15 μL of TR-FRET antibody mixture containing 2 nM anti-phosphorylated MKK4 labeled with Europium cryptate (Cisbio) and 23 nM anti-HIS labeled with D2 (Cisbio) in detection buffer (25 mM Tris pH 7.5, 100 mM NaCl, 100 mM EDTA, 0.01% Tween-20, and 200 mM KF) was added to the reaction mixture. The detection mixture was incubated for 3 hours at ambient temperature and the TR-FRET was detected with an EnVision multilabel plate reader (Perkin-Elmer) using the LANCE/DELFIA Dual Enh label from Perkin-Elmer (excitation filter: UV2 (TRF) 320 and emission filters: APC 665 and Europium 615).

Chain of DLK kinase (N-terminally GST-tagged DLK, catalytic domain amino acid 1-520) (Q12852 1-520): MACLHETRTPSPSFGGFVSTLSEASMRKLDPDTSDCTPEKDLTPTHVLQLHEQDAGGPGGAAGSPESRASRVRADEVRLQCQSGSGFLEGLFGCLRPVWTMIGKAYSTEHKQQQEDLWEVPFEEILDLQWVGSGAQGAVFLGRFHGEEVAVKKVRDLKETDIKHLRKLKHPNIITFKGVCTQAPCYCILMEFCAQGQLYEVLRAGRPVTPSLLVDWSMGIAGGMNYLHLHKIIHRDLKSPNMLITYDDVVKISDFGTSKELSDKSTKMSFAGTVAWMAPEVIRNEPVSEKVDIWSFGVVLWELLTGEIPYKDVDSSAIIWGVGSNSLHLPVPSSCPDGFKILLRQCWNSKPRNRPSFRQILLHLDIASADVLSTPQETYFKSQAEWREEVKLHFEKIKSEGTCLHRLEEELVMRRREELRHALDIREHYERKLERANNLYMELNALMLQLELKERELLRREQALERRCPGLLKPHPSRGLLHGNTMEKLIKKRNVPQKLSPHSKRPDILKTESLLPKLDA

Structure (SMILES) | Ki [µM]
Cc1nc(Nc2ccc(C(F)(F)F)cn2)cc(C2CCCN(C(=O)c3ccccc3)C2)n1 (stereo not drawn) | 0.691
CCc1ccnc(Nc2cc(C3CCCN(C(=O)c4ccccc4)C3)nc(C)n2)c1 (stereo not drawn) | 0.195
Cc1nc(Nc2cc(C(F)(F)F)ccn2)cc(C2CCCN(C(=O)c3ccc(F)cc3Cl)C2)n1 (stereo not drawn) | 0.0521
Cc1ccc(Nc2cc(C3CCCN(C(=O)c4ccccc4)C3)nc(C)n2)nc1 (stereo not drawn) [Example 5] | 0.401
COc1cc(C)ccc1C(=O)N1CCCC(c2cc(Nc3cc(C)ccn3)nc(C)n2)C1 (stereo not drawn) [Example 7] | 0.0207
Cc1nc(Nc2cc(C(N)=O)ccn2)cc(C2CCCN(C(=O)c3ccccc3)C2)n1 (stereo not drawn) [Example 8] | 0.795
CCOc1ccnc(Nc2cc(C3CCCN(C(=O)c4ccccc4)C3)nc(C)n2)c1 (stereo not drawn) [Example 21, {3-[6-(4-Ethoxy-pyridin-2-ylamino)-2-methyl-pyrimidin-4-yl]-piperidin-1-yl}-phenyl-methanone] | 0.0607
Cc1nc(Nc2cc(C(F)(F)F)ccn2)cc(C2CCCN(C(=O)c3ccc(F)cc3)C2)n1 (stereo not drawn) [Example 22, (4-Fluoro-phenyl)-{3-[2-methyl-6-(4-trifluoro-methyl-pyridin-2-ylamino)-pyrimidin-4-yl]-piperidin-1-yl}-methanone] | 0.0436
Cc1ccnc(Nc2cc(C3CCNCC3)nc(N3CCCC3)n2)c1 [Example 24, (4-Methyl-pyridin-2-yl)-(6-piperidin-4-yl-2-pyrrolidin-1-yl-pyrimidin-4-yl)-amine] | 0.0205
Cc1ccnc(Nc2cc(C3CCN(C(=O)c4ccccc4)CC3)nc(N3CCCC3)n2)c1 [Example 25, {4-[6-(4-Methyl-pyridin-2-ylamino)-2-pyrrolidin-1-yl-pyrimidin-4-yl]-piperidin-1-yl}-phenyl-methanone] | 0.05
Cc1ccnc(Nc2cc(C3CCCN(Cc4cn(C)nc4C)C3)nc(C)n2)c1 (stereo not drawn) [Example 38, {6-[1-(1,3-Dimethyl-1H-pyrazol-4-ylmethyl)-piperidin-3-yl]-2-methyl-pyrimidin-4-yl}-(4-methyl-pyridin-2-yl)-amine] | > 2.1
Cc1ccnc(Nc2cc(C3CCCN(Cc4cc(C)nn4C)C3)nc(C)n2)c1 (stereo not drawn) [Example 40, {6-[1-(2,5-Dimethyl-2H-pyrazol-3-ylmethyl)-piperidin-3-yl]-2-methyl-pyrimidin-4-yl}-(4-methyl-pyridin-2-yl)-amine] | 0.392
CN(CCO)c1nc(Nc2cc(C(F)(F)F)ccn2)cc(C2CCNC2)n1 (stereo not drawn) [Example 47, 2-{Methyl-[4-pyrrolidin-3-yl-6-(4-trifluoromethyl-pyridin-2-ylamino)-pyrimidin-2-yl]-amino}-ethanol] | 0.0126
Cc1ccnc(Nc2cc(C3CCCN(Cc4ccc5nccn5c4)C3)nc(C)n2)c1 (stereo not drawn) [Example 49, [6-(1-Imidazo[1,2-a]pyridin-6-ylmethyl-piperidin-3-yl)-2-methyl-pyrimidin-4-yl]-(4-methyl-pyridin-2-yl)-amine] | 0.31
Cc1ccnc(Nc2cc(C3CCCN(Cc4cn5ccccc5n4)C3)nc(C)n2)c1 (stereo not drawn) [Example 51, [6-(1-Imidazo[1,2-a]pyridin-2-ylmethyl-piperidin-3-yl)-2-methyl-pyrimidin-4-yl]-(4-methyl-pyridin-2-yl)-amine] | 0.166
Cc1ccnc(Nc2cc(C3CCCN(Cc4ccccn4)C3)nc(C)n2)c1 (stereo not drawn) [Example 56, (4-Methyl-pyridin-2-yl)-[2-methyl-6-(1-pyridin-2-ylmethyl-piperidin-3-yl)-pyrimidin-4-yl]-amine] | 0.293
CC1CCCN1c1nc(Nc2cc(C(F)(F)F)ccn2)cc(C2CCNCC2)n1 (stereo not drawn) [Example 65, [2-(2-Methyl-pyrrolidin-1-yl)-6-piperidin-4-yl-pyrimidin-4-yl]-(4-tri-fluoromethyl-pyridin-2-yl)-amine] | 0.000735
FC(F)(F)c1ccnc(Nc2cc(C3CCNC3)nc(N3CCCC3)n2)c1 (stereo not drawn) [Example 66, (2-Pyrrolidin-1-yl-6-pyr-rolidin-3-yl-pyrimidin-4-yl)-(4-trifluoromethyl-pyridin-2-yl)-amine] | 0.0048
CC(=O)N1CCCC(c2cc(Nc3cc(C)ccn3)nc(N3CCC3)n2)C1 (stereo not drawn) [Example 87, 1-{3-[2-Azetidin-1-yl-6-(4-methyl-pyridin-2-ylamino)-pyrimidin-4-yl]-piperidin-1-yl}-ethanone] | 0.262
CC(=O)N1CCC(c2cc(Nc3cc(C)ccn3)nc(N3CCCC3)n2)C1 (stereo not drawn) [Example 89, 1-{3-[6-(4-Methyl-pyridin-2-ylamino)-2-pyrrolidin-1-yl-pyrimidin-4-yl]-pyrrolidin-1-yl}-ethanone] | 0.059
CC(=O)N1CCC(c2cc(Nc3cc(C)ccn3)nc(N3CCCCC3)n2)C1 (stereo not drawn) [Example 90, 1-{3-[6-(4-Methyl-pyridin-2-ylamino)-2-piperidin-1-yl-pyrimidin-4-yl]-pyrrolidin-1-yl}-ethanone] | 0.104
FC1(F)CCCN(c2nc(Nc3cc(C(F)(F)F)ccn3)cc(C3CCNC3)n2)C1 (stereo not drawn) [Example 96, [2-(3,3-Difluoro-piperidin-1-yl)-6-pyrrolidin-3-yl-pyrimidin-4-yl]-(4-tri-fluoromethyl-pyridin-2-yl)-amine] | 0.0031
N#CC1(c2cc(Nc3cc(C(F)(F)F)ccn3)nc(N3CCC(F)(F)C3)n2)CCNCC1 [Example 105, 4-[2-(3,3-Difluoro-pyr-rolidin-1-yl)-6-(4-trifluoro-methyl-pyridin-2-ylamino)-pyrimidin-4-yl]-piperidine-4-carbonitrile] | 0.0117
CC(=O)N1CCCC(c2cc(Nc3cc(C)ccn3)nc(-c3ccccc3)n2)C1 (stereo not drawn) [Example 106, 1-{3-[6-(4-Methyl-pyridin-2-ylamino)-2-phenyl-pyrimidin-4-yl]-piperidin-1-yl}-ethanone] | 0.0307
C[C@@H]1CCCN1c1nc(Nc2cc(C(F)(F)F)ccn2)cc(C2CCNCC2)n1 [Example 111, [2-((R)-2-Methyl-pyrrolidin-1-yl)-6-piperidin-4-yl-pyrimidin-4-yl]-(4-trifluoromethyl-pyridin-2-yl)-amine] | 0.00085
C[C@H]1CCCN1c1nc(Nc2cc(C(F)(F)F)ccn2)cc(C2CCNCC2)n1 [Example 112, [2-((S)-2-Methyl-pyrrolidin-1-yl)-6-piperidin-4-yl-pyrimidin-4-yl]-(4-trifluoromethyl-pyridin-2-yl)-amine] | 0.0158
FC1(F)CCN(c2nc(Nc3cc(Cl)ccn3)cc(C3CCNCC3)n2)C1 [Example 120, (4-Chloro-pyridin-2-yl)-[2-(3,3-difluoro-pyrrolidin-1-yl)-6-piperidin-4-yl-pyrimidin-4-yl]-amine] | 0.00855
COc1ccnc(Nc2cc(C3CCNCC3)nc(N3CCCC3C)n2)c1 (stereo not drawn) [Example 125, (4-Methoxy-pyridin-2-yl)-[2-(2-methyl-pyrrolidin-1-yl)-6-piperidin-4-yl-pyrimidin-4-yl]-amine] | 0.0152
COc1ccnc(Nc2cc(C3CCN(C(C)=O)C3)nc(N3CCCC3C)n2)c1 (stereo not drawn) [Example 129, 1-{3-[6-(4-Methoxy-pyridin-2-ylamino)-2-(2-methyl-pyrrolidin-1-yl)-pyrimidin-4-yl]-pyrrolidin-1-yl}-ethanone] | 0.1
C[C@@H]1CC[C@@H](C)N1c1nc(Nc2cc(C(F)(F)F)ccn2)cc(C2CCNCC2)n1 [Example 143, [2-((2R,5R)-2,5-Dimethyl-pyrrolidin-1-yl)-6-piperidin-4-yl-pyrimidin-4-yl]-(4-trifluoromethyl-pyridin-2-yl)-amine] | 0.0104
